According to publication PMC4736406 (Stem Cells International, 2016):
Structures can show the parent of a compound that is named as a salt.

What was measured:
[1] = tested on: HepG2 cells; test: Image based high content analysis (HCA), fixed and live assays, in HepG2
Method: Briefly, the cells were grown in DMEM supplemented with 10% heat inactivated FBS, 1% penicillin-streptomycin (PEST), 1% sodium pyruvate, and 1% nonessential amino acids. Cells were passaged at 1 : 8 or 1 : 6 every 3-4 days when they reach 75–80% confluence. Seeding density was optimized for HCA application to ensure that the cells were in a monolayer (5000 cells per well in 96-well plates) for precise imaging. The cells were grown for 48 h to attach and stabilize. The experiments performed with HepG2 cells were designed to ensure that each assay was performed with cells in a similar growth phase.
Each concentration was assayed in triplicate wells. […] The experimental process is illustrated in Figure 2.
And finally, TOTO-3 was used for assessing PMP.
The cells were imaged using an Olympus ScanR system.
All other fluorescence signals were considered as subobjects.

[2] = tested on: hiPSC derived hepatocytes (hiPS-HEP); test: Image based high content analysis (HCA), fixed and live assays, in hiPSC derived hepatocytes;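 further: hiPS-HEP obtained from ChiPSC4 through definitive endoderm under serum- and feeder-free conditions in 96-well plates, fluorescence imaging, each concentration run in triplicate wells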
Source text: (§1) For hepatic differentiation, a serum- and feeder-free procedure recapitulating liver development was applied. First, ChiPSC4 was guided to differentiate into definitive endoderm using the Cellartis DE Diff Kit (Takara Bio Europe AB; Y30030), containing complete media and coating solution for differentiation of hPSC to DE cells in 2D culture. On day 7 of differentiation, the DE cells were enzymatically dissociated and reseeded into fibronectin coated 96-well plates. […] Wells of 96-well plates were coated by adding fibronectin solution 0.15 mL per cm^2 to the wells and let to incubate for >60 min at RT. […] Next, the cell suspension was centrifuged for 5 min at 300 g at RT, the supernatant was removed, and the cell pellet was resuspended in warm Hepatocyte Thawing and Seeding medium (Cellartis Hepatocyte Diff Kit; Takara Bio Europe AB; Y30050). Prior to seeding of cells, excess coating was removed and 150 K DE cells/cm^2 were seeded in the 96-well plates. On days 9 and 11 (counted from the start of ChiPSC4 differentiation), medium was changed using Hepatocyte Progenitor Medium (Cellartis Hepatocyte Diff Kit).
(§2) The cells were treated for 48 h with compounds at varying concentrations (half log dilution from the top concentration). […] The stock solutions were prepared in DMSO or water and were diluted in culture medium to obtain the final concentration. Each concentration was assayed in triplicate wells. Vehicle control wells were included and the final DMSO concentration in the medium never exceeded 0.5% (v/v). Each batch had two plates each for fixed and live assays.
(§3) LipidTOX Green neutral lipids and LipidTox Red phospholipidosis were used for identifying neutral lipid and phospholipid formation within the cells. MMP changes (Δψm) within the cell were measured using MitoTracker orange. Carboxy-H2DCFDA (6-carboxy-2′,7′-dichlorodihydrofluorescein diacetate) an acetylated fluorescent was used for measuring ROS. And finally, TOTO-3 was used for assessing PMP.
(§4) The fluorescence probes were grouped into two sets according to their optical compatibility and requirement of fixed or live material. […] The fluorescent probes for neutral lipids and phospholipids required the cells to be fixed and were assigned to the fixed assay. The probes MitoTracker orange, carboxy-H2DCFDA, and TOTO-3 were assigned to the live assay.
(§5) Following compound incubation, probes were administered to the cultures of the live assay. […] After incubation for 45 min at optimal cell culture conditions, the cells were changed to phenol red (PR) free medium for live cell imaging. For fixed assay, LipidTox Red probe was added with the compounds, and after 48 h the cells were fixed in 4% PFA supplemented with 1X Hoechst stain for 30 min at room temperature. Subsequently, cells were washed with PBS^+/+ and 1X LipidTOX Green stain diluted in PBS^+/+ was incubated with the cells for 30 min at room temperature. The plates were imaged without removing the buffer with probe.
(§6) The cells were imaged using an Olympus ScanR system. Prior to image acquisition, the heating system and CO2 gas flow were started to ensure optimal conditions in the ScanR chamber for live cell analysis. The incubator was set to 37°C with 5% CO2 and relative humidity of 90%. […] 20X long distance objective with NA 0.45 was used to image distinct fluorescence channels. In order to cover the entire well and also to capture maximum cell events sixteen fields per well (4 × 4 tile grid spread equally) were imaged. The channel exposure time for LipidTOX Green, LipidTOX Red, MitoTracker orange, and carboxy-H2DCFHDA were set based on the fluorescence of the negative control wells and were set constant within each plate. Exposure time for Hoechst and TOTO-3 was set in the range of 1–10 ms depending on cellular fluorescence intensity.
(§7) The acquired images were analyzed using ScanR analysis program from Olympus.

[3] = tested on: hiPSC derived hepatocytes (hiPS-HEP);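 further: hiPS-HEP obtained from ChiPSC4 through definitive endoderm under serum- and feeder-free conditions in 96-well plates, fluorescence imaging, each concentration run in triplicate wells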
Source text: as §1, §2, §3, §4, §5, §6, §7

[4] = plasma; no reference given; read-out: C max (maximum plasma concentration of the drug); cited from earlier work
[5] = HepG2, fixed, at 100 µM (Amiodarone HCL at […])
[6] = hiPSC derived hepatocytes, at concentrations higher than 100 μM, similar to control up to 100 μM

## O=C([O-])CC(O)(CC(=O)[O-])C(=O)[O-].[Na+].[Na+].[Na+] [Sodium citrate, sodium citrate]
[1]; [5]
  Degree of injury score, Phospholipids Area: 0 (variation lower than 25%)
  Degree of injury score, Phospholipids C: 1 (variation 25-150%)
  Degree of injury score, Phospholipids MI: 0 (variation lower than 25%)
[1]; HepG2 cultures, at 100 μM
  Score for phospholipidosis: false positive score
[2]; hiPSC derived hepatocytes, negative control substance
  Effects on all parameters measured over the whole dose range: No significant effects

## CN(C)[C@@H]1C(O)=C(C(N)=O)C(=O)[C@@]2(O)C(O)=C3C(=O)c4c(O)cccc4[C@@](C)(O)[C@H]3C[C@@H]12 [Tetracycline, tetracycline hydrochloride]
[1]; HepG2
  Significant changes on MMP: not detected
[1]; HepG2, fixed assay, 48 h
  IC50/EC50 Nucleus Area: 464 µM
  IC50/EC50 Nucleus Cell count: 558 µM
  IC50/EC50 Nucleus MI: 348 µM
  IC50/EC50 Steatosis Area: 287 µM
  IC50/EC50 Steatosis Count: 36.3 µM
  IC50/EC50 Steatosis MI: 361 µM
[1]; HepG2, live assay, 48 h
  IC50/EC50 MMP MI: 265 µM
  IC50/EC50 Nucleus Area: 336 µM
  IC50/EC50 Nucleus Cell count: 836 µM
  IC50/EC50 Nucleus MI: 959 µM
  IC50/EC50 ROS MI: 1149 µM
[1]; human, 48 h
  MEC, PMP mean intensity: 1000 µM
  MEC, ROS mean intensity: 1000 µM
  MEC, nuclear changes area (NC, A): 316 µM
  MEC, phospholipidosis mean intensity (PL, MI): 100 µM
  MEC, steatosis droplet count (S, C): 100 µM
  MEC, steatosis mean intensity (S, MI): 100 µM
  Minimal effective concentration (MEC), viability cell count (V, CC): 316 µM
[3]
  Cytotoxic effects: minimal cytotoxic effects
  Phospholipid parameters / accumulation of phospholipids: not detected
  Significant changes in PMP: did not generate any significant changes
  Significant changes on MMP: not detected
[3]; human, 48 h
  Concentration at which increase in lipid accumulation / lipid droplets was observed: 32 µM
  Concentration at which mitochondrial membrane potential (MMP) increased: 32 µM
  Concentration at which nuclear changes were evident (nuclear intensity and area): 320 µM
  Concentration at which oxidative stress increased: 100 µM
  MEC, ROS mean intensity: 316 µM
  MEC, nuclear changes area (NC, A): 316 µM
  MEC, steatosis droplet count (S, C): 316 µM
  MEC, steatosis mean intensity (S, MI): 1000 µM
  MEC, viability cell count (V, CC): 1000 µM
  Minimal effective concentration (MEC), viability cell count (V, CC): 1000 µM
[4]
  Cmax: 14.2 µM
[2]; hiPS-HEP, fixed assay, 48 h
  IC50/EC50 Nucleus Area: 105 µM
  IC50/EC50 Nucleus Cell count: 432 µM
  IC50/EC50 Nucleus MI: 211 µM
  IC50/EC50 Steatosis Area: 213 µM
  IC50/EC50 Steatosis Count: 184 µM
  IC50/EC50 Steatosis MI: 418 µM
[2]; hiPS-HEP, live assay, 48 h
  IC50/EC50 Nucleus Area: 211 µM
  IC50/EC50 Nucleus Cell count: 243 µM
  IC50/EC50 Nucleus MI: 380 µM
  IC50/EC50 ROS MI: 160 µM
[2]; [6]
  Increase of mean nuclear intensity: 12%
  Increase of nuclear area: 14%
[2]; hiPSC derived hepatocytes, at the highest concentration
  Increase of PMP compared to the control: 8%
